The subject of the assay is arachidonic acid-induced ear swelling. Kind of assay: topical arachidonic acid-induced ear swelling model in mice. The format is in vivo. The conditions noted are these: for % Inhibition of ear swelling: measured at 90 minutes, male ICR mice; for inhibition in the ear swelling induced by arachidonic acid relative to vehicle-treated group (in words): statistically significant, p<0.05. As to the method:
The active compounds (methanesulfonylalkylnitriles, n=1-6), indomethacin (positive control), and vehicle were evaluated for anti-inflammatory activity in a topical arachidonic acid-induced ear swelling model in mice.
Methanesulfonylacetonitrile (n=1) was purchased from Aldrich. Methanesulfonylalkylnitriles, n=2-5 were prepared by a method modified from Hsi et al. (Scientia Sinica 1974, 17, 743-751) with 30% hydrogen peroxide as the oxidizing agent. 7-methanesulfonylheptanenitrile (n=6) was prepared according to Example 1. Each active compound and the positive control were dissolved in vehicle (ethanol/acetone 1:1).
Male ICR mice weighing 22±2 g were used and randomly divided; each group had 10 mice. Arachidonic Acid (0.5 mg in 20 μl of acetone:ethanol/1:1) was applied topically to the anterior and posterior surfaces of the right ear of each mice. Test substances and vehicle, as listed in Table 3 were similarly topically applied 30 min before and 15 min after arachidonic acid application. The thickness of the right ear and the left ear was measured and the difference calculated as an indication of the inflammation in the right ear. Ear swelling was measured by a Dyer model micrometer gauge at 60 and 90 minutes after arachidonic acid application as an index of inflammation. Percent inhibition was calculated according to the formula: Ic−It/Ic×100, where Ic and It refers to increase of ear thickness (mm) in control and treated mice, respectively. ANOVA and Dunnett's test were employed to ascertain significant difference between vehicle control and treated groups. Significance is set at P<0.05 level.

Setting [1] is: 375 mM in acetone:ethanol (1:1), 20 μL, 30 min before and 15 min after arachidonic acid.

Here are results for seven molecules from US20130324603A1, “PHARMACEUTICAL COMPOSITION FOR TREATING INFLAMMATION AND PAIN” (priority 2012, published 2013).

Turning to `CS(=O)(=O)CCCCC#N` [5-methanesulfonylpentanenitrile], the “inhibition in the ear swelling induced by arachidonic acid relative to vehicle-treated group (in words)” value is listed as “significant inhibition”. For the same molecule, under setting [1], the “% Inhibition of ear swelling” value is reported as 24%.

As to `CS(=O)(=O)CCC#N` [3-methanesulfonylpropionitrile], the “inhibition in the ear swelling induced by arachidonic acid relative to vehicle-treated group (in words)” value is listed as “significant inhibition”. Further, under setting [1], the “% Inhibition of ear swelling” value was determined as 36%. `COc1ccc2c(c1)c(CC(=O)O)c(C)n2C(=O)c1ccc(Cl)cc1` [Indomethacin, reference compound]: the “% Inhibition of ear swelling” value (positive control, 14 mM (0.5% w/v), 0.1 mg/20 μL) amounted to 53%. For the molecule `CS(=O)(=O)CCCCCCC#N` [7-methanesulfonylheptanenitrile], the “inhibition in the ear swelling induced by arachidonic acid relative to vehicle-treated group (in words)” value is reported as “significant inhibition”. In addition, the “% Inhibition of ear swelling” value under setting [1] came out at 46%. Take `CS(=O)(=O)CCCC#N` [4-methanesulfonylbutyronitrile]: under setting [1], the “% Inhibition of ear swelling” value is recorded as 15%. As to `CS(=O)(=O)CC#N` [Methanesulfonylacetonitrile, methanesulfonylacetonitrile], the “inhibition in the ear swelling induced by arachidonic acid relative to vehicle-treated group (in words)” value is given as “significant inhibition”. In addition, the “% Inhibition of ear swelling” value under setting [1] was found to be 22%. Turning to `CS(=O)(=O)CCCCCC#N` [6-methanesulfonylhexanenitrile], the “% Inhibition of ear swelling” value under setting [1] stood at 8%.
